The target of the assay is SARS-CoV-2 NSP3 macrodomain (Mac1) (Severe acute respiratory syndrome coronavirus 2, UniProt P0DTD1). Nature of the assay: biochemical. Particulars: for Ki: read-out: SARS CoV-2 macrodomain HTRF assay: Ki; for Ligand efficiency (binding enery per heavy atom): from SARS CoV-2 macrodomain HTRF assay. The class given is binding. A general note: Time-resolved FRET reads energy transfer from a long-lived donor to a nearby acceptor.

The mark [1] stands for this setting: Dose-response, SARS CoV-2 macrodomain HTRF assay, read-out: IC50.
The mark [2] stands for this setting: Single dose, 200 μM, mean of three technical replicates.
Where [3] appears, read: Single dose, concentration 200 μM, read-out: Average % competition.
Setting [4] is: preliminary screen, compound at 200 μM, mean of 3-4 technical replicates, read-out: % competition in HTRF assay.
Where [5] appears, read: Single dose, concentration 200 μM, read-out: SARS CoV-2 macrodomain HTRF assay: Average % competition.
The mark [6] stands for this setting: dose-response, read-out: SARS CoV-2 macrodomain HTRF assay: IC50.

Data on 70 molecules can be found in publication doi:10.1101/2024.08.25.609621 (bioRxiv, 2024).

Where two headings read alike, the source gives them in different places.

The molecule `CC1c2ccsc2CCN1C(=O)Cc1csc(-c2ccccc2)n1` (centres unmarked) [AVI-287] had an Average % competition of 0%.

`O=C1COc2cc(C(=O)N3CC(C(=O)O)c4ccccc43)ccc2N1` (centres unmarked) [AVI-289]: under setting [1], the 50% inhibitory concentration (IC50) is above 1000 µM. The molecule further came in with an Average % competition under setting [2] of 21%.

In turn, `Cc1nc2cc(NC(=O)C3CC(=O)Nc4ccccc43)ccc2o1` (centres unmarked) [AVI-292] showed an Average % competition of 0%.

Regarding `Cc1ncc(CN(C)C(=O)c2cccc(N)c2F)s1` [AVI-293], the IC50 under setting [1] was above 1000 µM. This molecule gave an Average % competition under setting [2] of 14%.

Take `CC1CN(C(=O)c2ccccc2S(C)(=O)=O)c2cccnc2O1` (centres unmarked) [AVI-294]: the Average % competition came out at 13%.

As for `CCCC1CCCC1C(=O)N[C@H]1CCc2nc(N)sc2C1` (some centres unmarked) [AVI-298], the Average % competition was below 10%.

Molecule `CC(=O)Nc1ccc(S(=O)(=O)CCCN2C(=O)CC(C)(C(C)C)C2=O)cc1` (centres unmarked) [AVI-299] returned an Average % competition of 19%.

Turning to `O=C(NCCCN1C(=O)NC2(CCCC2)C1=O)c1ccc(O)nc1` [AVI-300], the Average % competition was 8%.

Molecule `Cc1ccc2c(c1)C(=O)N(CCC(=O)Nc1cnc3c(c1)c(C)nn3C)C2=O` [AVI-301] had an Average % competition of 16%.

`Cc1nnc2n1CCN(C(=O)CN1C(=O)CCOc3ccccc31)C2` [AVI-302] registered an Average % competition of 0%.

For `CC(OC(=O)c1ccc2nc(N)sc2c1)C(=O)N1CCCCCC1` (centres unmarked) [AVI-304], the Average % competition worked out at 0%.

As to `CNC(=O)c1ccc(NC(=O)C2CC(=O)Nc3ccccc32)cc1` (centres unmarked) [AVI-305], the Average % competition came to 0%.

As for `Cc1nc(-c2cccc(NC(=O)NCc3cccs3)c2)n[nH]1` [AVI-306], the half-maximal inhibitory concentration (IC50) under setting [1] was above 1000 µM. The Average % competition under setting [2] came out at 20%.

The molecule `O=C1CC(C(=O)Nc2nc3c(s2)CCCC3)c2ccccc2N1` (centres unmarked) [AVI-307] returned an Average % competition of 0%.

Regarding `c1ccn2c(Sc3ncnc4ccsc34)nnc2c1` [AVI-308], the Average % competition was 0%.

In turn, `CNS(=O)(=O)c1cc(C(=O)N2CCOc3ccccc32)n(C)c1` [AVI-309] gave an Average % competition of 0%.

As for `Cc1ccc(O)c(C(=O)c2cnn3c(N)nnc3c2)c1` [AVI-310], the Average % competition came to 0%.

In turn, `Nc1ccc(F)c(C(=O)NCc2cnc(O)nc2O)c1F` [AVI-312] returned an Average % competition below 10%.

For the molecule `O=C(O)C1CN(C(=O)c2cccc3[nH]ccc23)c2ccccc21` (centres unmarked) [AVI-314], the IC50 under setting [1] is above 1000 µM. For the same molecule, the Average % competition under setting [2] turned out to be 32%.

With `CC(=O)Nc1ccc(NC(=O)CSc2nnnn2C2CCCC2)cc1` [AVI-315], the Average % competition amounted to 0%.

`O=C(c1cc(C2CCCCC2)[nH]n1)N1CCCC(O)(C(F)(F)F)CC1` (centres unmarked) [AVI-318] returned an Average % competition of 13%.

Molecule `O=C(O)C1CN(C(=O)c2ccc3[nH]nnc3c2)c2ccccc21` (centres unmarked) [AVI-319] gave an Average % competition of 25%.

`Cc1ccc(C)c(CN2C(=O)NC(C)(Cc3ccc4c(c3)OCO4)C2=O)c1` (centres unmarked) [AVI-320]: the Average % competition came to 18%.

On to `Cc1noc(NCc2cc3ccccc3nc2O)n1` [AVI-322], for which the Average % competition worked out at 0%.

Molecule `O=C(O)C1CN(C(=O)c2ccc3c(c2)OCCO3)CCO1` (centres unmarked) [AVI-323] registered an Average % competition of 7%.

Take `Nc1ncnc(N2CCC(C(F)(F)F)C3(CCC3)C2)c1Cl` (centres unmarked) [AVI-324]: the Average % competition is below 10%.

`CCOc1ccc(-c2nc(CC(=O)N3CCn4cccc4C3C)cs2)cc1` (centres unmarked) [AVI-325] yielded an Average % competition of 0%.

In turn, `O=C(O)C1CCc2nnc(-c3ccc(F)cc3)n2C1` (centres unmarked) [AVI-326] showed an Average % competition of 15%.

In turn, `Cc1nn(C)c2sc(C(=O)N3CC(C(=O)O)c4ccccc43)cc12` (centres unmarked) [AVI-327] had an Average % competition of 0%.

`NC(=O)N1CCC[C@H]1C(=O)Nc1ccc2ncnn2c1` [AVI-330] displayed an Average % competition of 14%.

`Nc1ncnc2sc3c(c12)CCN(C(=O)[C@H]1CC=CCC1)C3` [AVI-331]: the Average % competition is below 10%.

Consider `N#Cc1cnc(CSc2nc(-c3ccccc3)co2)nc1N` [AVI-332], for which the Average % competition is on record as below 10%.

In turn, `O=C(O)c1ccc2c(c1)C(NC(=O)C1CCn3ncnc3C1)CCC2` (centres unmarked) [AVI-333] yielded an Average % competition of 21%.

The molecule `CC1CCCC1OC(=O)Cn1cnc2c1c(=O)n(C)c(=O)n2C` (centres unmarked) [AVI-335] came in with an Average % competition below 10%.

As for `Cc1ccc(N2CCN(c3ncnc(-c4ccccc4)n3)CC2=O)cc1` [AVI-336], the Average % competition is listed as below 10%.

In turn, `CC(C(=O)NCc1c(C(=O)O)[nH]c2ccccc12)n1cncn1` (centres unmarked) [AVI-337] came in with an Average % competition of 14%.

With `Nc1cc(N2CCC3CCCCC3C2)ncn1` (centres unmarked) [AVI-339], the IC50 under setting [1] is above 1000 µM. The molecule further yielded an Average % competition under setting [2] below 10%.

In the case of `CC1(c2ccc(F)cc2)CN(C(=O)c2cnc(N)nc2C(F)(F)F)C1` [AVI-340], the Average % competition was 20%.

In turn, `Cn1ccc2cc(NC(=O)C3CC(=O)NC4CCCCC43)ccc21` (centres unmarked) [AVI-342] came in with an Average % competition below 10%.

`Cc1nc(N)ncc1C(=O)NCC(O)Cc1ccc(Cl)cc1` (centres unmarked) [AVI-343] had an Average % competition below 10%.

As for `COc1ccc(-c2nccc(N3CCC(c4ccsc4)CC3)n2)cc1` [AVI-344], the Average % competition is reported as below 10%.

For the molecule `O=c1[nH]c2ccccc2cc1CNc1nc(C2CC2)ns1` [AVI-346], the IC50 under setting [1] was above 1000 µM. Also, the Average % competition under setting [2] is below 10%.

Molecule `Cc1ccc(CC(=O)N2CCSC23CC(C(=O)O)C3)cc1O` (centres unmarked) [AVI-347] had an Average % competition below 10%.

`CC(NC(=O)c1ccc(N)nc1Cl)C(O)c1cccc(F)c1` (centres unmarked) [AVI-349] showed an Average % competition of 15%.

In the case of `O[C@@]1(Cn2ccnn2)CCCN(c2ncnc3[nH]ccc23)C1` [AVI-608], the inhibition at 200 µM was 8% under setting [3] and below 10% under setting [4].

Consider `O[C@@H]1CNCC[C@H]1Nc1ncnc2[nH]ccc12` [AVI-613], for which the inhibition at 200 µM under setting [3] was below 10% and the inhibition at 200 µM under setting [4] was below 10%.

`CN(C)C[C@@]1(O)CCCN(c2ncnc3[nH]ccc23)C1` [AVI-614]: the inhibition at 200 µM is below 10% under setting [3] and below 10% under setting [4].

In the case of `O[C@H]1CNCC[C@@H]1Nc1ncnc2[nH]ccc12` [AVI-615], the inhibition at 200 µM was below 10% under setting [5] and below 10% under setting [4].

Take `O=C(O)C(F)(F)F.OC1c2ccccc2CC1Nc1ncnc2[nH]ccc12` (centres unmarked) [AVI-3634]: the inhibition at 200 µM is, setting by setting: under setting [3], below 10%; under setting [4], below 10%.

Take `O=C(O)C(F)(F)F.OCC(Nc1ncnc2[nH]ccc12)C1CCCO1` (centres unmarked) [AVI-3645]: the inhibition at 200 µM is, setting by setting: under setting [3], 54%; under setting [4], 54%.

For `O=C(O)C(F)(F)F.OC[C@@H](CCc1ccccc1)Nc1ncnc2[nH]ccc12` [AVI-3654], the inhibition at 200 µM was determined as 27% under setting [3] and 27% under setting [4].

Consider `CC(C)CCC(CO)Nc1ncnc2[nH]ccc12.O=C(O)C(F)(F)F` (centres unmarked) [AVI-3668], for which the inhibition at 200 µM came to 38% under setting [3] and 38% under setting [4].

Take `O=[N+]([O-])c1ccc(C(O)C(CO)Nc2ncnc3[nH]ccc23)cc1` (centres unmarked) [AVI-3672]: the inhibition at 200 µM under setting [3] was 43% and the inhibition at 200 µM under setting [4] was determined as 43%.

For `O=C(O)C(F)(F)F.OCC(CC1CCOCC1)Nc1ncnc2[nH]ccc12` (centres unmarked) [AVI-3676], the inhibition at 200 µM was below 10% under setting [3] and below 10% under setting [4].

On to `O=C(O)C(F)(F)F.OCC(Nc1ncnc2[nH]ccc12)C(O)C1CCCCC1` (centres unmarked) [AVI-3687], for which the inhibition at 200 µM is, setting by setting: under setting [3], 33%; under setting [4], 33%.

`O=C(O)C(F)(F)F.OCC(Cc1cccc(F)c1)Nc1ncnc2[nH]ccc12` (centres unmarked) [AVI-3706]: the inhibition at 200 µM under setting [3] turned out to be 77% and the inhibition at 200 µM under setting [4] was found to be 77%.

As to `O=C(O)C(F)(F)F.OCC1C2C=CC(C2)N1c1ncnc2[nH]ccc12` (centres unmarked) [AVI-3712], the inhibition at 200 µM under setting [5] amounted to 55% and the inhibition at 200 µM under setting [4] was found to be 55%.

`CC(C)(C)C(O)CC(CO)Nc1ncnc2[nH]ccc12.O=C(O)C(F)(F)F` (centres unmarked) [AVI-3714]: the inhibition at 200 µM is, setting by setting: under setting [3], below 10%; under setting [4], below 10%.

Take `OCC1CCC2(CCOCC2)CN1c1ncnc2[nH]ccc12` (centres unmarked) [AVI-4065]: the “Ligand efficiency (binding enery per heavy atom)” value is 0.21. Besides, the IC50 under setting [6] came to 430 µM. Besides, the inhibition constant Ki (dose-response) turned out to be 400 µM.

For the molecule `CC1(C)CCC(O)(CNc2ncnc3[nH]ccc23)CC1` [AVI-4310], the “Ligand efficiency (binding enery per heavy atom)” value came out at 0.29. The IC50 under setting [6] was 76 µM. Moreover, the Ki (dose-response) is 71 µM.

Turning to `OC1(CNc2ncnc3[nH]ccc23)CCC2(CC1)OCCO2` [AVI-4315], the “Ligand efficiency (binding enery per heavy atom)” value is recorded as 0.23. Under setting [6], the IC50 was 210 µM. The Ki (dose-response) came to 200 µM.

With `CC(Nc1ncnc2[nH]ccc12)C1(O)CCCCC1` (centres unmarked) [AVI-4321], the “Ligand efficiency (binding enery per heavy atom)” value was 0.32. Further, the IC50 under setting [6] was found to be 48 µM. The Ki (dose-response) was found to be 45 µM.

Turning to `Cc1c[nH]c2ncnc(NCC3(O)CCC(C)(C)CC3)c12` [AVI-4330], the “Ligand efficiency (binding enery per heavy atom)” value is on record as 0.21. In addition, the IC50 under setting [6] was 650 µM. For the same molecule, the inhibition constant Ki (dose-response) was 610 µM.

Take `OCC1(Nc2ncnc3[nH]ccc23)COC1` [AVI-5649]: the inhibition at 200 µM reads like this: under setting [3], below 10%; under setting [4], below 10%.

For the molecule `Nc1cccc(CSC2CCc3ccccc32)n1` (centres unmarked) [AVI-6015], where the note is “read-out: IC50”, the half-maximal inhibitory concentration (IC50) is above 1000 µM.

Take `CC(O)C1CCN(c2cc(N3CCC(c4ccccc4)CC3C)ncn2)C1` (centres unmarked) [AVI-6016]: the IC50 (read-out: IC50) is above 1000 µM.

As for `Nc1ncnc(N2CCCCC3(CCC3)C2)c1Cl` [AVI-6017], the half-maximal inhibitory concentration (IC50) (read-out: IC50) is above 1000 µM.

For `Cc1ccc(C(=O)O)cc1NCc1ccc2nsnc2c1` [AVI-6018], the IC50 (read-out: IC50) is above 1000 µM.

As to `O=C1OC(CSC2CCC(O)C2)CN1C1CCCCC1` (centres unmarked) [AVI-6019], the concentration for half-maximal inhibition (IC50) (read-out: IC50) is above 1000 µM.

`Cn1c(=O)[nH]c(=O)c2c1nc(Br)n2CC(=O)C1CCC(F)(F)CC1` [AVI-6020]: the IC50 (read-out: IC50) is above 1000 µM.

For orientation: IC50 means the midpoint of a concentration-inhibition curve. One may read the Ki as a measure of affinity in units of concentration, obtained from inhibition or displacement.
